Measured values from patent publication US20230355646A1, “AUTOPHAGY ACTIVATOR” (Resonac Corporation, priority 2020, published 2023).

How the values were obtained:
LC3 gene = LC3 gene expression promoting effect in human senescent fibroblasts (quantitative real-time PCR); assay type: cell-based
Protocol: (§1) Normal human fibroblasts (NB1RGB, RIKEN BRC Cell Bank) were cultured until confluent in D-MEM medium (manufactured by Sigma-Aldrich) to which 10% fetal bovine serum (manufactured by MP Biomedicals) was added. Thereafter, the cells were treated with 250 μM aqueous hydrogen peroxide for 2 hours, and cultured for 24 hours in D-MEM medium to which fresh 10% fetal bovine serum was added. The treatment with aqueous hydrogen peroxide and the cell culture operation were repeated three times, and the obtained fibroblasts were used as senescent fibroblasts.
(§2) The prepared senescent fibroblasts were prepared at a seeding density of 10000 cells/cm^2 and cultured for 24 hours in D-MEM medium (manufactured by Sigma-Aldrich) to which 10% fetal bovine serum (manufactured by MP Biomedicals) was added. […]
(§3) Then, using Nucleospin (registered trademark) RNA kit (manufactured by Takara Bio Inc.), RNA was extracted from senescent fibroblasts or normal human fibroblasts in each example, and cDNA was synthesized from the obtained RNA. Next, using this cDNA as a template, by quantitative real-time PCR, the expression level of each gene was quantified using primers (manufactured by Takara Bio Inc.) specific to the LC3 gene, ATG5 gene, and ATG7 gene, respectively. […]

ATG5 gene = ATG5 gene expression promoting effect in human senescent fibroblasts (quantitative real-time PCR); assay type: cell-based
Protocol: as §1, §2, §3

[1] = 10^−2% (V/V) methyl hesperidin or hesperidin, additional ingredient where in the example, 24 hours, Comparative Example 1 (DMSO) = 1.00
[2] = compared to DMSO only of Comparative Example 1

In the case of `COc1ccc([C@@H]2CC(=O)c3c(O)cc(O[C@@H]4O[C@H](CO[C@@H]5O[C@@H](C)[C@H](O)[C@@H](O)[C@H]5O)[C@@H](O)[C@H](O)[C@H]4O)cc3O2)cc1O` [Comparative Example 2, hesperidin], the “Relative gene expression level LC3” value (LC3 gene; [1]) is reported as <0, the “expression level of the LC3 gene (in words)” value (LC3 gene; [2]) is reported as “more decreased” and the “Relative gene expression level ATG5” value (ATG5 gene; [1]) is reported as 0.93. The “expression level of the ATG5 gene (in words)” value (ATG5 gene; [2]) was “more decreased”.
